The results in this text go back to patent US20240315243A1, “A COMBINATION OF FLU[…] SEAWEED EXTRACT” (priority 2021, published 2024).

The subject of data set [1] is Spodoptera litura. Nature of the data set: Field experiment, binary mixture, Spodoptera litura in tomato crop. The data set is classed as in vivo. From the text: (§1) The tomato seedlings were transplanted and all the recommended package of practices for tomato farming was followed in the experiment, except for plant protection chemicals. […] Vigor descriptive scale was totally based on visual observations.

The test system of data set [2] is Helicoverpa armigera. Nature of the data set: Whole plant greenhouse assay, 3-way mixture, Helicoverpa armigera. The conditions noted are these: tomato plants, 3rd instar larva, 72 hours; flubendiamide 30 GAH, profenofos 480 GAH, Ascophyllum Nodosum 120 GAH, solo or mixtures (1:16, 4:1, 1:16:4). As for the experimental part: (§2) The action expected for a given combination of two or three active components can be calculated as follows: […]
(§3) The experiments were carried out to study synergies if any in terms of the use of insecticides (Flubendiamide & Profenofos) and Ascophyllum Nodosum extract mixture at ratio 1:16:4 and 1:16:6 for the control of insect pest and phytotonic effect, if any.
(§4) The whole plant assay was conducted in the greenhouse, in which the desired quantity of the compounds (Flubendiamide, Profenofos and Ascophyllum Nodosum extract) and mixture in the ratio of 1:16:4 and 1:16:6 were prepared. 40-45 days old tomato plants were used for the treatments. Prepared compounds (Table 7) were sprayed in the booth of Generation III research sprayer (to obtain uniformity in spray) with a delivery rate of about 500 L/hectare of spray solution through flat fan nozzle. After the treatment, the plants were allowed to dry and then moved to the laboratory. The treated plants were covered with a mylar sheet for restricting the larval movement. Single starved 3rd instar larva was released on to the plants individually and mylar sheet was covered at the top with a muslin cloth for better air ventilation. The observation on dead, moribund and alive larvae was recorded at 72 hours after the treatment.

The subject of data set [3] is tomato crop. Nature of the data set: Field experiment, 3-way mixture, vigor rating of tomato crop. It is filed as in vivo. As to conditions: for plant vigor compared with control (visual observation): field, tomato crop; for Vigor rating: visual rating, untreated plots = 100 percent, flubendiamide 30 GAH, profenofos 480 GAH, Ascophyllum Nodosum 120 GAH, solo or mixtures (1:16, 1:4, 4:1, 1:16:4). The source says:
Vigor descriptive scale was totally based on visual observations.

The test system of data set [4] is tomato crop. The experiment in a line: Field experiment, binary mixture, yield of tomato fruits. As to conditions: flubendiamide 30 GAH, Ascophyllum nodosum 120 GAH, solo or mixture 30 + 120 (1:4). The data set is classed as in vivo.
Text: (§5) The expected activity for a given combination of two active compounds (binary composition) can be calculated as follows: […]
(§6) In which E represents the expected percentage of inhibition of the disease for the combination of two pesticides at defined doses (for example equal to x and y respectively), x is the percentage of inhibition observed for the disease by the compound (1) at a given dose (equal to x), y is the percentage of inhibition observed for the disease by the compound (2) at a defined dose (equal to y).
as §1

Another data set concerns Thrips. The experiment in a line: Whole plant greenhouse assay, 3-way mixture, Thrips. The conditions noted are these: brinjal plants, thrips nymph, 72 hours; flubendiamide 30 GAH, profenofos 480 GAH, Ascophyllum Nodosum 120 GAH, solo or mixtures (1:16, 1:4, 4:1, 1:16:4). As for the experimental part: as §2, §3
as §4, with “days old brinjal plants were” for “days old tomato plants were”, “larval movement. Nymph of thrips was released” for “larval movement. Single starved 3rd instar larva was released”, “and mylar was covered” for “and mylar sheet was covered”

Data set [5] deals with tomato crop. The experiment in a line: Field experiment, binary mixture, vigor rating of tomato crop. The data set is classed as in vivo.
Text: as §5, §6, §1

Data set [6] has as its system Helicoverpa armigera. The experiment in a line: Whole plant greenhouse assay, binary mixture, Helicoverpa armigera. It is filed as in vivo. As to conditions: tomato plants, 3rd instar larva, 72 hours; flubendiamide 30 GAH, Ascophyllum nodosum 120 GAH, solo or mixture 30 + 120 (1:4). From the text:
(§7) 25 to 30 days old tomato plants were used for the treatments.

The subject of data set [7] is Spodoptera litura. Nature of the data set: Whole plant greenhouse assay, 3-way mixture, Spodoptera litura. The conditions noted are these: tomato plants, 3rd instar larva, 72 hours; flubendiamide 30 GAH, profenofos 480 GAH, Ascophyllum Nodosum 120 GAH, solo or mixtures (1:16, 1:4, 4:1, 1:16:4). How it is done: as §2, §3
as §4, with “and mylar was covered” for “and mylar sheet was covered”

In data set [8] the test system is Spodoptera litura. Nature of the data set: Field experiment, 3-way mixture, Spodoptera litura in tomato crop. The conditions noted are these: 7 Day after application, flubendiamide 30 GAH, profenofos 480 GAH, Ascophyllum Nodosum 120 GAH, solo or mixtures (1:16, 1:16:4). How it is done: as §2
(§8) The Field experiment was conducted at PI Industries Limited, Agricultural Research Station, Hyderabad to evaluate the efficacy of mixture of Flubendiamide, Profenofos and Ascophyllum Nodosum against Spodoptera litura in tomato crop. The tomato seedlings were transplanted and all the recommended packages of practices for tomato farming were followed in the experiment, except for plant protection chemicals. The ratio of Flubendiamide, Profenofos and Ascophyllum Nodosum mixture was 1:16:4 and 1:16:6 and the experiment was carried out in plots of 5×5 m in a randomized block design with three replications for each treatment. The applications were done with the help of a knapsack sprayer having a delivery of about 500 L/hectare. Care was taken to avoid drift of spray solution to adjacent experimental plots. Assessment of all the treatments was done for vigor, phytotoxicity and insect control. Observation on the insect larval count per plot from fifteen randomly selected plants was recorded at one day before and on 7 Day after application. […] Vigor descriptive scale was totally based on visual observations. For vigor comparison among treatments, untreated plots were considered as 100 percent and based on that rating was given to other treatments.

For data set [9], the system named is tomato crop. The experiment in a line: Field experiment, 3-way mixture, yield of tomato fruits. The data set is classed as in vivo. The conditions noted are these: flubendiamide 30 GAH, profenofos 480 GAH, Ascophyllum Nodosum 120 GAH, solo or mixtures (1:4, 4:1, 1:16:4). How it is done: as §2, §8
Data set [10] relates to Spodoptera litura. The experiment in a line: Whole plant greenhouse assay, binary mixture, Spodoptera litura. The data set is classed as in vivo. As to conditions: tomato plants, 3rd instar larva, 72 hours; flubendiamide 30 GAH, Ascophyllum nodosum 120 GAH, solo or mixture 30 + 120 (1:4).
Text: as §7

Take `Cc1cc(C(F)(C(F)(F)F)C(F)(F)F)ccc1NC(=O)c1cccc(I)c1C(=O)NC(C)(C)CS(C)(=O)=O` [Flubendiamide, 3-iodo-N′-(2-mesyl-1,1-dimethylethyl)-N-{4-[1,2,2,2-tetrafluoro-1-(trifluoromethyl)ethyl]-o-tolyl}phthalamide]: in the data set with Spodoptera litura [1] (30 GAH), the “efficacy against Spodoptera litura in tomato (in words)” value is “effectively controlled the insect pests”. The “Spodoptera litura (% control) 7 DAA” value in the data set with Spodoptera litura [1] (tomato, 7 DAA, flubendiamide 30 GAH, Ascophyllum nodosum 120 GAH, solo or mixture 30 + 120 (1:4)) stood at 66.67%. In the data set with Spodoptera litura [1] (tomato, 10 DAA, flubendiamide 30 GAH, Ascophyllum nodosum 120 GAH, solo or mixture 30 + 120 (1:4)), the “Spodoptera litura (% control) 10 DAA” value worked out at 70.00%. For the same compound, the Observed % mortality in the data set on Helicoverpa armigera [2] amounted to 65%; in the data set on Thrips, 8%; in the data set on Spodoptera litura [7] it was 72%; in the data set on Spodoptera litura [8], 72.7%. In addition, the “plant vigor compared with control (visual observation)” value with tomato crop [3] was “good plant vigor”; in the data set on tomato crop [5] (field, tomato crop), “good plant vigor”. Also, the Vigor rating in the data set on tomato crop [3] came out at 125. Further, in the data set with tomato crop [4], the “Yield of tomato fruits, Ton/ha (observed)” value is 60.16 Ton/ha. For the same compound, the Vigor with tomato crop [5] (visual rating, untreated plots = 100 percent, flubendiamide 30 GAH, Ascophyllum nodosum 120 GAH, solo or mixture 30 + 120 (1:4)) came out at 110. The “% mortality” value in the data set with Helicoverpa armigera [6] and in the data set with Spodoptera litura [10] was 70% in each case. For the same compound, the “Observed yield (ton/hectare) of tomato fruits” value in the data set on tomato crop [9] was 64.20 ton/hectare.

Turning to `CCCSP(=O)(OCC)Oc1ccc(Br)cc1Cl` (stereo not shown) [Profenofos, profenofos], the Observed % mortality in the data set with Helicoverpa armigera [2] stood at 50%; in the data set with Thrips it was 72%; in the data set with Spodoptera litura [7], 52%; with Spodoptera litura [8], 55.6%. The “plant vigor compared with control (visual observation)” value with tomato crop [3] is reported as “good plant vigor”. Further, the Vigor rating in the data set on tomato crop [3] came out at 120. Further, the “Observed yield (ton/hectare) of tomato fruits” value in the data set on tomato crop [9] came out at 56.95 ton/hectare.
